Assay results published in patent publication US7601333B2, “Use of a tetrapeptide AcSDKP (SEQ ID No. 1) analog resistant to the angiotensin I converting enzyme for measuring glomerular filtration rate in a human or an animal and kit containing same” (Assistance Publique-Hopitaux de Paris, priority 2003, dated 2009).
“And” between values parts separate entries of the source, which are not always exact repeats. Equal entries are not always repeated. Residues, ends and D or L forms follow the SMILES beside them.

Assays:
[1] = biological target: T1, ACE present in mouse plasma (Mus musculus, UniProt P09470); conditions: cited from earlier work
T1 construct: host or cells: mouse plasma
T1 sequence (P09470 35-1237 limits assumed): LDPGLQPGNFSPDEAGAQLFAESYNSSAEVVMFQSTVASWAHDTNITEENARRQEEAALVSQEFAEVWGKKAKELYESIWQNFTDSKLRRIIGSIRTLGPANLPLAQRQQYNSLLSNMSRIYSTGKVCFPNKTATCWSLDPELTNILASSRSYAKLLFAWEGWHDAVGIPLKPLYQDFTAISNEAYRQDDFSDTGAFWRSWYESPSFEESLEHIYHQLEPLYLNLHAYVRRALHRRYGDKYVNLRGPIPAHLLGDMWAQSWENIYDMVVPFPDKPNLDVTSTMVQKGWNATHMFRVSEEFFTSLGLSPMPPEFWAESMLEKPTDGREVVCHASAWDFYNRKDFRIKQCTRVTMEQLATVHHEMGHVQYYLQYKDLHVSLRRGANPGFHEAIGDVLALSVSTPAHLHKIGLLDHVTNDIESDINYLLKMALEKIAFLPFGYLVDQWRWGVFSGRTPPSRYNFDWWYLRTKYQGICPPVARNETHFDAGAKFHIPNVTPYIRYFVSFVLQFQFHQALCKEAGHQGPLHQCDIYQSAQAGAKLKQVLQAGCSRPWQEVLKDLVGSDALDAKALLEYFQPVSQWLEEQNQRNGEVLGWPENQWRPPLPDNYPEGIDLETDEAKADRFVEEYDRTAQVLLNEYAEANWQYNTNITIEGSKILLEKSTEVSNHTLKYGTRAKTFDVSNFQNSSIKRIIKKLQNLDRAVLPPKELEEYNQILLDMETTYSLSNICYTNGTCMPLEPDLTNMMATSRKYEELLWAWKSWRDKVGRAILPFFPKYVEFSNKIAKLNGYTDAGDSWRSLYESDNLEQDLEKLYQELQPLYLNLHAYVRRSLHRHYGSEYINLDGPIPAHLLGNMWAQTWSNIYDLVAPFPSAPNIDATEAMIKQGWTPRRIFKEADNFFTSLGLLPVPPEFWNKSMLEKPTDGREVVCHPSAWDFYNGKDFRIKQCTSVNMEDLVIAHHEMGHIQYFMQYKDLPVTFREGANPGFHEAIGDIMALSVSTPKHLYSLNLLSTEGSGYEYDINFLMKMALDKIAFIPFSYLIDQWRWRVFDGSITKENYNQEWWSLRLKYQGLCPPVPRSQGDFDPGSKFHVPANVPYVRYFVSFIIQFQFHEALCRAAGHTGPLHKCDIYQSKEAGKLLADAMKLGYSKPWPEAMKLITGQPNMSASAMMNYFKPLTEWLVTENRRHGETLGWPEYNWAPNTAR

[2] = cited from earlier work
in vivo = conditions: male, Wistar, rat, plasma, iv
[3] = Plasma and urine pharmacokinetics after I.V. bolus in rats; conditions: for % excreted: urine; for Renal clearance: summarizing table, i.v. bolus
[4] = Group 3, i.v. bolus, without captopril, 24-48 h, single rats
[5] = Group 3, i.v. bolus, without captopril, mean
[6] = Group 3, i.v. bolus, without captopril, single rats
[7] = Group 4, i.v. bolus, with captopril, 4-24 h, single rats
[8] = Group 4, i.v. bolus, with captopril, 48-72 h, single rats
[9] = Group 4, i.v. bolus, with captopril, mean
[10] = Group 4, i.v. bolus, with captopril, single rats

Compound: CC(=O)N[C@@H](CO)C(=O)N[C@@H](CC(=O)O)C(=O)N[C@@H](CCCCN)C(=O)N1CCC[C@H]1C(N)=O [AcSDKP-NH2, N-acetyl-Ser-Asp-Lys-Pro-NH2] (Ac-SDKP-NH2)
- degradation by the ACE present in mouse plasma [1]: not degraded
- modification after 3 freezing-thawing cycles [2]: no adverse modification
- AUC0-inf (in vivo): 1490 ng·h/mL
- Vd (in vivo): 0.284 L/kg
- clearance (in vivo): 8.1 mL/min/kg
- half-life (in vivo): 23.1 min
- level at 5 min (in vivo): 3400 ng/mL
- level at 10 min (in vivo): 2680 ng/mL
- level at 0.25 h (in vivo): 1720 ng/mL
- level at 0.5 h (in vivo): 1010 ng/mL
- level at 1 h (in vivo): 450 ng/mL
- level at 2 h (in vivo): 82 ng/mL
- level at 4 h (in vivo): 3 ng/mL
- AUC0-inf (in vivo; 0.82 mg/kg): 1230 ng·h/mL
- Vd (in vivo; 0.82 mg/kg): 0.338 L/kg
- half-life (in vivo; 0.82 mg/kg): 23.3 min
- level at 5 min (in vivo; 0.82 mg/kg): 2830 ng/mL
- level at 10 min (in vivo; 0.82 mg/kg): 2330 ng/mL
- level at 3 h (in vivo; 0.82 mg/kg): 16 ng/mL
- level at 4 h (in vivo; 0.82 mg/kg): 3 ng/mL
- AUC0-inf (in vivo; 1 mg/kg): 1650 ng·h/mL
- Vd (in vivo; 1 mg/kg): 0.266 L/kg
- clearance (in vivo; 1 mg/kg): 8.1 mL/min/kg
- Q in urine ([3]; Group 3, i.v. bolus, without captopril, 0-2 h, single rats): 175685.1 ng and 0.0 ng (5×)
- Q in urine ([3]; Group 3, i.v. bolus, without captopril, 2-4 h, single rats): 0.0 ng (3×) and 180325.8 ng and 141210.2 ng and 290581.1 ng
- Q in urine ([3]; Group 3, i.v. bolus, without captopril, 4-7 h, single rats): 84030.9 ng and 23548.7 ng and 0.0 ng (4×)
- Q in urine ([3]; Group 3, i.v. bolus, without captopril, 7-24 h, single rats): 16014.8 ng and 8570.5 ng and 211497.2 ng and 41898.9 ng and 29223.7 ng and 159391.7 ng
- Concentration in urine [3, 4]: ILQ
- Q in urine [3, 4]: 513.0 ng and 1304.8 ng and 47218.0 ng and 603.6 ng and ILQ and 3161.4 ng
- Concentration in plasma ([3]; Group 3, i.v. bolus, without captopril, 5 min, single rats): 2581 ng/mL and 3139 ng/mL and 2865 ng/mL and 2491 ng/mL and 3250 ng/mL and 2663 ng/mL
- Concentration in plasma ([3]; Group 3, i.v. bolus, without captopril, 10 min, single rats): 1611 ng/mL and 2288 ng/mL and 2425 ng/mL and 2152 ng/mL and 2918 ng/mL and 2595 ng/mL
- Concentration in plasma ([3]; Group 3, i.v. bolus, without captopril, 15 min, single rats): 1655 ng/mL and 985 ng/mL and 2204 ng/mL and 1796 ng/mL and 1930 ng/mL and 1750 ng/mL
- Concentration in plasma ([3]; Group 3, i.v. bolus, without captopril, 30 min, single rats): 748 ng/mL and 880 ng/mL and 1317 ng/mL and 1329 ng/mL and 930 ng/mL and 867 ng/mL
- Concentration in plasma ([3]; Group 3, i.v. bolus, without captopril, 60 min, single rats): 233 ng/mL and 443 ng/mL and 598 ng/mL and 545 ng/mL and 416 ng/mL and 463 ng/mL
- Concentration in plasma ([3]; Group 3, i.v. bolus, without captopril, 120 min, single rats): 47 ng/mL and 45 ng/mL and 163 ng/mL and 118 ng/mL and 48 ng/mL and 69 ng/mL
- Concentration in plasma ([3]; Group 3, i.v. bolus, without captopril, 240 min, single rats): ILQ (2×) and 3 ng/ml and 5 ng/ml and 2 ng/ml and 4 ng/ml
- Concentration in plasma ([3]; Group 3, i.v. bolus, without captopril, 300 min, single rats): ILQ
- CLR [3, 5]: 7.59 mL/min/kg
- Ctotal dose/AUC [3, 5]: 8.08 mL/min/kg
- AUC0-INF [3, 6]: 87407 ng·min/mL and 125025 ng·min/mL and 111894 ng·min/mL and 101003 ng·min/mL and 96190 ng·min/mL
- CLR [3, 6]: 11.8 mL/min/kg and 7.7 mL/min/kg and 6.4 mL/min/kg and 4.9 mL/min/kg and 9.8 mL/min/kg and 5.0 mL/min/kg
- Ctotal dose/AUC [3, 6]: 11.3 mL/min/kg and 9 mL/min/kg and 6.2 mL/min/kg and 6.5 mL/min/kg and 8.1 mL/min/kg and 7.2 mL/min/kg
- Q in urine total [3, 6]: 276243.9 ng and 213749.7 ng and 258715.2 ng and 183712.7 ng and 319804.8 ng and 162553.1 ng
- Vd [3, 6]: 0.27 L/kg and 0.22 L/kg and 0.253 L/kg and 0.256 L/kg and 0.261 L/kg
- t½ [3, 6]: 20.7 min (2×) and 24.5 min and 26.8 min and 21.8 min and 25.1 min
- % excreted [3, 5]: 92.67%
- % excreted [3, 6]: 120.7%
- Concentration in urine [3, 7]: 11032 ng/mL
- Q in urine [3, 7]: 208504.2 ng and 144361.5 ng and 286064.8 ng and 274157.3 ng and 353834.5 ng
- Q in urine ([3]; Group 4, i.v. bolus, with captopril, 24-48 h, single rats): 10737.7 ng and 2183.9 ng and 16360.4 ng and 10087.6 ng and 6728.5 ng
- Concentration in urine [3, 8]: ILQ and 11 ng/ml
- Q in urine [3, 8]: 758.4 ng and ILQ and 619.3 ng and 4008.3 ng and 0.0 ng
- Concentration in plasma ([3]; Group 4, i.v. bolus, with captopril, 5 min, single rats): 3623 ng/mL and 3115 ng/mL and 4099 ng/mL and 2863 ng/mL and 3280 ng/mL
- Concentration in plasma ([3]; Group 4, i.v. bolus, with captopril, 10 min, single rats): 1750 ng/mL and 3571 ng/mL and 3075 ng/mL and 2682 ng/mL and 2346 ng/mL
- Concentration in plasma ([3]; Group 4, i.v. bolus, with captopril, 15 min, mean): 1874 ng/mL
- Concentration in plasma ([3]; Group 4, i.v. bolus, with captopril, 15 min, single rats): 1432 ng/mL and 1978 ng/mL and 2363 ng/mL and 1635 ng/mL and 1960 ng/mL
- Concentration in plasma ([3]; Group 4, i.v. bolus, with captopril, 30 min, mean): 1213 ng/mL
- Concentration in plasma ([3]; Group 4, i.v. bolus, with captopril, 30 min, single rats): 1128 ng/mL and 891 ng/mL and 1173 ng/mL and 889 ng/mL and 1986 ng/mL
- Concentration in plasma ([3]; Group 4, i.v. bolus, with captopril, 60 min, mean): 453 ng/mL
- Concentration in plasma ([3]; Group 4, i.v. bolus, with captopril, 60 min, single rats): 312 ng/mL and 338 ng/mL and 346 ng/mL and 357 ng/mL and 910 ng/mL
- Concentration in plasma ([3]; Group 4, i.v. bolus, with captopril, 120 min, mean): 74 ng/mL
- Concentration in plasma ([3]; Group 4, i.v. bolus, with captopril, 120 min, single rats): 31 ng/mL and 63 ng/mL and 64 ng/mL and 73 ng/mL and 140 ng/mL
- Concentration in plasma ([3]; Group 4, i.v. bolus, with captopril, 180 min, mean): 15 ng/mL
- Concentration in plasma ([3]; Group 4, i.v. bolus, with captopril, 180 min, single rats): 7 ng/mL and 11 ng/mL and 18 ng/mL and 16 ng/mL and 23 ng/mL
- Concentration in plasma ([3]; Group 4, i.v. bolus, with captopril, 240 min, single rats): 2 ng/ml (2×) and 3 ng/ml (3×)
- Concentration in plasma ([3]; Group 4, i.v. bolus, with captopril, 300 min, mean): 0 ng/mL
- Concentration in plasma ([3]; Group 4, i.v. bolus, with captopril, 300 min, single rats): ILQ (4×) and 0 ng/ml
- AUC0-INF [3, 9]: 110097 ng·min/mL
- CLR [3, 9]: 8.03 mL/min/kg
- Ctotal dose/AUC [3, 9]: 8.06 mL/min/kg
- Vd [3, 9]: 0.269 L/kg
- AUC0-INF [3, 10]: 100543 ng·min/mL and 114983 ng·min/mL and 92278 ng·min/mL and 153339 ng·min/mL
- CLR [3, 10]: 8.2 mL/min/kg and 4.7 mL/min/kg and 9.1 mL/min/kg and 10.6 mL/min/kg and 7.6 mL/min/kg
- Ctotal dose/AUC [3, 10]: 9.0 mL/min/kg and 6.9 mL/min/kg and 7.8 mL/min/kg and 9.4 mL/min/kg and 7.2 mL/min/kg
- Q in urine total [3, 10]: 220000 ng and 146545.0 ng and 303045 ng and 288253 ng and 360563 ng
- Vd [3, 10]: 0.23 L/kg and 0.26 L/kg and 0.327 L/kg and 0.242 L/kg
- t½ [3, 10]: 21.9 min and 23.0 min and 24.1 min
- % excreted [3, 9]: 98.76%
- GFR measured after administration, difference between the groups of rats ([3]; rats): does not differ significantly
- degradation in vivo by ACE or other enzyme systems ([3]; rats): not degraded in vivo
- excretion in the urine ([3]; rats): completely excreted in the urine without being reabsorbed or secreted
- mean AUC of group without captopril less than group with captopril ([3]; rats, mean injected dose 11% higher with captopril): approximately 10%
- Renal clearance ([3]; rats, with captopril): 8.0 mL/min/kg
- Renal clearance ([3]; rats, without captopril): 7.6 mL/min/kg
